# Assay results: patent US12077537B2 (Gilead Sciences, Inc., priority 2020, dated 2024)
# System: HIV-IIIb
# Experiment: Antiviral assay in MT4 cells
# Format: cell-based
# Conditions: Human immunodeficiency virus 1, MT4, 120 h; MT-4 cells mixed with HIV-IIIb at m.o.i. 0.003; 5 days at 37° C.; CellTiter-Glo luminescence; 50% decrease in signal, a measure of HIV-1 replication
# Protocol: Antiviral Assay in MT4 Cells For the antiviral assay, 40 μL of a concentration required to achieve a final effective 1× test concentration of 3-fold serially diluted compound in culture medium with 10% FBS was added to each well of a 384-well plate (10 concentrations) in quadruplicate. MT-4 cells were next mixed with HIV-IIIb at an m.o.i of 0.003 for 1 hour, after which time 35 μL of virus/cell mixture (2000 cells) was immediately added to each well containing 40 μL of diluted compound. The plates were then incubated at 37° C. for 5 days. After 5 days of incubation, 25 μl of 2× concentrated CellTiter-Glom Reagent (catalog #G7571, Promega Biosciences, Inc., Madison, WI) was added to each well containing MT-4 cells. Cell lysis was carried out by incubating at room temperature for 10 min and then chemiluminescence was read.
row,EC50,SMILES
1,29700 nM,"Cc1[nH]c2ccccc2c1CC(=O)N[C@@H](Cc1ccccc1)c1nc2ccccc2n1-c1ccccc1 [Compound 2, (S)-2-(2-methyl-1H-indol-3-yl)-N-(2-phenyl-1-(1-phenyl-1H-benzo[d]imidazol-2-yl)ethyl)acetamide]"
2,160 nM,"NC(=O)c1cc(-c2cc3sc(N4CCOCC4)nc3nc2[C@H](Cc2cc(F)cc(F)c2)NC(=O)Cn2nc(C(F)F)c3c2C(F)(F)CCC3(F)F)ccc1F [Compound 3, (S)-5-(5-(1-(2-(3-(difluoromethyl)-4,4,7,7-tetrafluoro-4,5,6,7-tetrahydro-1H-indazol-1-yl)acetamido)-2-(3,5-difluorophenyl)ethyl)-2-morpholinothiazolo[4,5-b]pyridin-6-yl)-2-fluorobenzamide]"
3,154 nM,"COCCOCCNc1nc2nc([C@H](Cc3cc(F)cc(F)c3)NC(=O)Cn3nc(C(F)F)c4c3C(F)(F)CCC4(F)F)c(-c3ccc(F)c(C(N)=O)c3)cc2s1 [Compound 4, (S)-5-(5-(1-(2-(3-(difluoromethyl)-4,4,7,7-tetrafluoro-4,5,6,7-tetrahydro-1H-indazol-1-yl)acetamido)-2-(3,5-difluorophenyl)ethyl)-2-((2-(2-methoxyethoxy)ethyl)amino)thiazolo[4,5-b]pyridin-6-yl)-2-fluorobenzamide]"
4,76.9 nM,NC(=O)c1cc(-c2cc3sc(N4CCN(C5COC5)CC4)nc3nc2[C@H](Cc2cc(F)cc(F)c2)NC(=O)Cn2nc(C(F)F)c3c2C(F)(F)CCC3(F)F)ccc1F [Compound 5]
5,98.6 nM,"CC(C)(O)CNc1nc2nc([C@H](Cc3cc(F)cc(F)c3)NC(=O)Cn3nc(C(F)F)c4c3C(F)(F)CCC4(F)F)c(-c3ccc(F)c(C(N)=O)c3)cc2s1 [Compound 6, (S)-5-(5-(1-(2-(3-(difluoromethyl)-4,4,7,7-tetrafluoro-4,5,6,7-tetrahydro-1H-indazol-1-yl)acetamido)-2-(3,5-difluorophenyl)ethyl)-2-((2-hydroxy-2-methylpropyl)amino)thiazolo[4,5-b]pyridin-6-yl)-2-fluorobenzamide]"
6,127 nM,"CN1CCN(c2nc3nc([C@H](Cc4cc(F)cc(F)c4)NC(=O)Cn4nc(C(F)F)c5c4C(F)(F)CCC5(F)F)c(-c4ccc(F)c(C(N)=O)c4)cc3s2)CC1 [Compound 7, (S)-5-(5-(1-(2-(3-(difluoromethyl)-4,4,7,7-tetrafluoro-4,5,6,7-tetrahydro-1H-indazol-1-yl)acetamido)-2-(3,5-difluorophenyl)ethyl)-2-(4-methylpiperazin-1-yl)thiazolo[4,5-b]pyridin-6-yl)-2-fluorobenzamide]"
7,162 nM,"NC(=O)c1cc(-c2cc3sc(NCCN4CCOCC4)nc3nc2[C@H](Cc2cc(F)cc(F)c2)NC(=O)Cn2nc(C(F)F)c3c2C(F)(F)CCC3(F)F)ccc1F [Compound 8, (S)-5-(5-(1-(2-(3-(difluoromethyl)-4,4,7,7-tetrafluoro-4,5,6,7-tetrahydro-1H-indazol-1-yl)acetamido)-2-(3,5-difluorophenyl)ethyl)-2-((2-morpholinoethyl)amino)thiazolo[4,5-b]pyridin-6-yl)-2-fluorobenzamide]"
8,266 nM,"NC(=O)c1cc(-c2cc3sc(NC4CCOC4)nc3nc2[C@H](Cc2cc(F)cc(F)c2)NC(=O)Cn2nc(C(F)F)c3c2C(F)(F)CCC3(F)F)ccc1F (stereo partly drawn) [Compound 9, 5-(5-((S)-1-(2-(3-(difluoromethyl)-4,4,7,7-tetrafluoro-4,5,6,7-tetrahydro-1H-indazol-1-yl)acetamido)-2-(3,5-difluorophenyl)ethyl)-2-((tetrahydrofuran-3-yl)amino)thiazolo[4,5-b]pyridin-6-yl)-2-fluorobenzamide]"
9,384 nM,"NC(=O)c1cc(-c2cc3sc(NC4COC4)nc3nc2[C@H](Cc2cc(F)cc(F)c2)NC(=O)Cn2nc(C(F)F)c3c2C(F)(F)CCC3(F)F)ccc1F [Compound 10, (S)-5-(5-(1-(2-(3-(difluoromethyl)-4,4,7,7-tetrafluoro-4,5,6,7-tetrahydro-1H-indazol-1-yl)acetamido)-2-(3,5-difluorophenyl)ethyl)-2-(oxetan-3-ylamino)thiazolo[4,5-b]pyridin-6-yl)-2-fluorobenzamide]"
10,162 nM,"CC1(O)CN(c2nc3nc([C@H](Cc4cc(F)cc(F)c4)NC(=O)Cn4nc(C(F)F)c5c4C(F)(F)CCC5(F)F)c(-c4ccc(F)c(C(N)=O)c4)cc3s2)C1 [Compound 11, (S)-5-(5-(1-(2-(3-(difluoromethyl)-4,4,7,7-tetrafluoro-4,5,6,7-tetrahydro-1H-indazol-1-yl)acetamido)-2-(3,5-difluorophenyl)ethyl)-2-(3-hydroxy-3-methylazetidin-1-yl)thiazolo[4,5-b]pyridin-6-yl)-2-fluorobenzamide]"
11,158 nM,"COCCNc1nc2nc([C@H](Cc3cc(F)cc(F)c3)NC(=O)Cn3nc(C(F)F)c4c3C(F)(F)CCC4(F)F)c(-c3ccc(F)c(C(N)=O)c3)cc2s1 [Compound 12, (S)-5-(5-(1-(2-(3-(difluoromethyl)-4,4,7,7-tetrafluoro-4,5,6,7-tetrahydro-1H-indazol-1-yl)acetamido)-2-(3,5-difluorophenyl)ethyl)-2-((2-methoxyethyl)amino)thiazolo[4,5-b]pyridin-6-yl)-2-fluorobenzamide]"
12,126 nM,"NC(=O)c1cc(-c2cc3sc(N4CC5(COC5)C4)nc3nc2[C@H](Cc2cc(F)cc(F)c2)NC(=O)Cn2nc(C(F)F)c3c2C(F)(F)CCC3(F)F)ccc1F [Compound 13, (S)-5-(5-(1-(2-(3-(difluoromethyl)-4,4,7,7-tetrafluoro-4,5,6,7-tetrahydro-TH-indazol-1-yl)acetamido)-2-(3,5-difluorophenyl)ethyl)-2-(2-oxa-6-azaspiro[3.3]heptan-6-yl)thiazolo[4,5-b]pyridin-6-yl)-2-fluorobenzamide]"
13,318 nM,"NC(=O)c1cc(-c2cc3sc(O)nc3nc2[C@H](Cc2cc(F)cc(F)c2)NC(=O)Cn2nc(C(F)F)c3c2C(F)(F)CCC3(F)F)ccc1F [Compound 15-1, (S)-5-(5-(1-(2-(3-(difluoromethyl)-4,4,7,7-tetrafluoro-4,5,6,7-tetrahydro-1H-indazol-1-yl)acetamido)-2-(3,5-difluorophenyl)ethyl)-2-hydroxythiazolo[4,5-b]pyridin-6-yl)-2-fluorobenzamide]"
14,326 nM,"NC(=O)c1cc(-c2cc3scnc3nc2[C@H](Cc2cc(F)cc(F)c2)NC(=O)Cn2nc(C(F)F)c3c2C(F)(F)CCC3(F)F)ccc1F [Compound 15-2, (S)-5-(5-(1-(2-(3-(difluoromethyl)-4,4,7,7-tetrafluoro-4,5,6,7-tetrahydro-1H-indazol-1-yl)acetamido)-2-(3,5-difluorophenyl)ethyl)thiazolo[4,5-b]pyridin-6-yl)-2-fluorobenzamide]"
15,2640 nM,"N#Cc1cc(-c2cc3scnc3nc2[C@H](Cc2cc(F)cc(F)c2)NC(=O)Cn2nc(C(F)F)c3c2C(F)(F)CCC3(F)F)ccc1F [Compound 15E, (S)—N-(1-(6-(3-cyano-4-fluorophenyl)thiazolo[4,5-b]pyridin-5-yl)-2-(3,5-difluorophenyl)ethyl)-2-(3-(difluoromethyl)-4,4,7,7-tetrafluoro-4,5,6,7-tetrahydro-1H-indazol-1-yl)acetamide]"
16,1020 nM,"O=C(Cn1nc(C(F)F)c2c1C(F)(F)CCC2(F)F)N[C@@H](Cc1cc(F)cc(F)c1)c1nc2ncsc2cc1-c1ccc(F)cc1 [Compound 16, (S)-2-(3-(difluoromethyl)-4,4,7,7-tetrafluoro-4,5,6,7-tetrahydro-1H-indazol-1-yl)-N-(2-(3,5-difluorophenyl)-1-(6-(4-fluorophenyl)thiazolo[4,5-b]pyridin-5-yl)ethyl)acetamide]"
